Assay results as given in ChEMBL document CHEMBL5257141, “PROTAC: Harnessing Targeted Chimeras for Selective BCL-2 Degradation in Cancer Treatment” (ACS Med Chem Lett, 2023).

Molecular target: Apoptosis regulator Bcl-2 (Homo sapiens, UniProt P10415)
Assay: Inhibition of BCL-2 (unknown origin) using FITC-Ahx-GQVGRQLAIIGDDINR-CONH2 as substrate incubated for 4 hrs by fluorescence polarization competition assay

Sequence of Apoptosis regulator Bcl-2 (P10415 whole entry): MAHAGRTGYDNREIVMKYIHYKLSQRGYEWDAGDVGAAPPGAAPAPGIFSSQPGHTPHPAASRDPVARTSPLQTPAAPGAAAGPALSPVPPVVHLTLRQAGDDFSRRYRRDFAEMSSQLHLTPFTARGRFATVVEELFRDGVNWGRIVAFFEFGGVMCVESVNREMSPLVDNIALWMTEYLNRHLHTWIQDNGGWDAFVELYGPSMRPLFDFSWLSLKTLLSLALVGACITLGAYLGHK

IC50, < 20 nM:
COc1cc(C(=O)NCCOCCOCCNc2ccc(S(=O)(=O)NC(=O)c3ccc(N4CCN(CC5=C(c6ccc(Cl)cc6)CC(C)(C)CC5)CC4)cc3Oc3cnc4[nH]ccc4c3)cc2[N+](=O)[O-])ccc1NC(=O)[C@@H]1N[C@@H](CC(C)(C)C)[C@](C#N)(c2ccc(Cl)cc2F)[C@H]1c1cccc(Cl)c1F
COc1cc(C(=O)NCCNc2ccc(S(=O)(=O)NC(=O)c3ccc(N4CCN(CC5=C(c6ccc(Cl)cc6)CC(C)(C)CC5)CC4)cc3Oc3cnc4[nH]ccc4c3)cc2[N+](=O)[O-])ccc1NC(=O)[C@@H]1N[C@@H](CC(C)(C)C)[C@](C#N)(c2ccc(Cl)cc2F)[C@H]1c1cccc(Cl)c1F
CC1(C)CCC(CN2CCN(c3ccc(C(=O)NS(=O)(=O)c4ccc(NCCNC(=O)COc5cccc6c5C(=O)N(C5CCC(=O)NC5=O)C6=O)c([N+](=O)[O-])c4)c(Oc4cnc5[nH]ccc5c4)c3)CC2)=C(c2ccc(Cl)cc2)C1 (stereo not given)
CC1(C)CCC(CN2CCN(c3ccc(C(=O)NS(=O)(=O)c4ccc(NCCOCCOCCNC(=O)CCNC(=O)COc5cccc6c5C(=O)N(C5CCC(=O)NC5=O)C6=O)c([N+](=O)[O-])c4)c(Oc4cnc5[nH]ccc5c4)c3)CC2)=C(c2ccc(Cl)cc2)C1 (stereo not given)
CC1(C)CCC(CN2CCN(c3ccc(C(=O)NS(=O)(=O)c4ccc(NCCOCCOCCNC(=O)COc5cccc6c5C(=O)N(C5CCC(=O)NC5=O)C6=O)c([N+](=O)[O-])c4)c(Oc4cnc5[nH]ccc5c4)c3)CC2)=C(c2ccc(Cl)cc2)C1 (stereo not given)
